Source: a melting point compilation (Tetko et al.; mined from patent text by program, amines drawn as free bases though some values may be those of a salt)

Row | Structure (SMILES) | melting point
1 | CC(C)(C)c1ccc(CCOc2ccnc3c(F)cccc23)cc1 | 81 to 82 °C
2 | CC(Cc1ccc(Oc2cc(N3CCN(Cc4ccccn4)CC3)nc(N)n2)cc1)(Oc1ccccc1)C(=O)O (stereo unspecified) | 138 to 139 °C
3 | COc1cc(COc2nn(C)cc2C(=O)N(C)OC)ccc1OCc1nc(-c2ccccc2)oc1C | 138 to 139 °C
4 | O=C(O)COc1nnc(C(Cl)Cl)s1 | 114 °C
5 | COc1ccc(N2CCN(CCN3CCC(c4noc5cc(F)ccc45)CC3)C2=O)cc1 | 154 to 157 °C
6 | Nc1ccccc1C(=O)C=CC(=O)O | 103 to 107 °C
7 | CCOC(=O)C(=O)Nc1ccc(-n2ccnc2)cc1 | 177 to 180 °C
8 | Cc1cc(N(C)C)nc2ccc(C=O)cc12 | 96 to 99 °C
9 | CCOC(=O)c1c(SC2CCCCC2=O)nc2cc(Cl)c(F)cc2c1O (stereo unspecified) | 252 to 257 °C
10 | CN1CC(CCCl)Oc2ncc(-c3ccccc3)cc2C1=S (stereo unspecified) | 156 to 158 °C
11 | C=CCOc1ccc(C=CC(=O)N2CCN(c3nc(N)c4cc(OC)c(OC)cc4n3)CC2)cc1 | 218 to 220 °C
12 | COc1ccc(-c2cnc(C3(c4ccc(OC)c(OC)c4)NCCc4c3[nH]c3ccccc43)nc2)cc1OC (stereo unspecified) | 184 to 186 °C
13 | CC(C)(C)C(=O)NCc1cccs1 | 64 to 65 °C
14 | CCOc1ccccc1OCC1(O)CCN(Cc2ccccc2)C1 (stereo unspecified) | 56.5 to 59 °C
15 | O=C1NC2CC3CC(C2)CC1C3 | > 270 °C
16 | COc1ccc(-c2[nH]cnc2-c2cc(OC)c(O)c(OC)c2)cc1N | 148 to 150 °C
17 | CCc1c([N+](=O)[O-])ccc2cc[nH]c12 | 50 °C
18 | O=c1[nH]c2ncc(-c3cncnc3)nc2n1CC1CCCCC1 | > 260 °C
19 | CNC(=C[N+](=O)[O-])NCCc1nnc(NCCCOc2cccc(CN3CCCCC3)c2)n1C | 110 to 112 °C
20 | COc1ccc(OC(F)(F)F)cc1[C@H]1CO[C@]2(CCCN[C@H]2c2ccccc2)C1 | 91 to 104 °C
21 | COc1ccc(Cl)c(CBr)c1 | 51 to 52 °C
22 | COc1ccc(Cn2c(=O)c3ccc4ccccc4c3c3c4ccccc4ccc32)cc1 | 229 °C
23 | COc1cc2c(cc1OC)/C(=N/OCc1ccc3nonc3c1)CC2 | 163 to 166 °C
24 | COc1cc(N)c2c(c1)OC(C)C2 (stereo unspecified) | 59 to 61 °C
25 | Cn1cc(Oc2cc(Cl)cc(Cl)c2)c(=O)c(-c2cccc(C(F)(F)F)c2)c1 | 128 to 130 °C
26 | CCOc1cc2cc(CO)nc(-c3ccnc(-n4nc(-c5cc(OC)c(OC)c(OC)c5)c5sccc5c4=O)c3)c2cc1OCC | 250 to 251 °C

Row | Structure (SMILES) | melting point
27 | O=C(N[C@H]1CC[C@H](CCN2CCN(c3nccc4c3OCC4)CC2)CC1)c1ccc(Cl)cc1Cl | 244 °C
28 | Nc1nc2c(=O)c3cc(Cl)ccc3oc2cc1-c1nnn[nH]1 | > 300 °C
29 | OCCCc1conc1-c1ccc(Cl)c(F)c1 | 54 to 55 °C
30 | COC(=O)[C@H](Cc1cc(Cl)c(OCc2cccc3nc(-c4ccccc4)oc23)c(Cl)c1)NC(=O)C(F)(F)F | 168 to 170 °C
31 | Nc1nc(N)c2ncn(COCCOC=O)c2n1 | 238 to 240 °C
32 | O=C(O)c1cc2cc(C(=O)c3cccs3)c(Cl)c(Cl)c2o1 | 243 to 245 °C
33 | CCc1nc2c(C)c([N+](=O)[O-])c(C)nc2[nH]1 | 146 to 149 °C
34 | COC(=O)C[C@H](NC(=O)OCc1ccccc1)C(=O)O | 55 to 60 °C
35 | COc1ccccc1-c1cccc2nc(Nc3cc(OC)c(OC)c(OC)c3)oc12 | 185 to 187 °C
36 | CC(C)n1ncnc1COc1nn2c(-c3cc(F)ccc3F)nncc2c1C(C)(C)C | 163 °C
37 | CCCCCC1CCc2c3c(c(F)c(F)c2O1)OC(C)C3 (stereo unspecified) | 76 °C
38 | O=C(Cn1ccnc1[N+](=O)[O-])NCCO | 164 to 165 °C
39 | COc1ccc(-c2nnc(C(=O)N3CC(Oc4ccc(CN5CCC(C)(CO)CC5)cc4)C3)o2)cc1 | 102 °C
40 | COC(OC)C1CN=C(c2cc3sc(C)c(N(C)S(=O)(=O)c4cccs4)c3[nH]2)S1 (stereo unspecified) | 185 °C
41 | CC(=O)c1c(Cl)cc(Cl)cc1OCC(=O)O | 110 °C
42 | COC(=O)c1cnc(Cl)c(OC)c1 | 83 to 85 °C
43 | COc1cc2nc(-c3cccs3)cc(C(=O)O)c2cc1OC | 260 to 263 °C
44 | CCOC(=O)c1ccc(OCC(O)CC)cc1 (stereo unspecified) | 52 to 52.5 °C
45 | CCOC(=O)c1[nH]nc(C)c1[N+](=O)[O-] | 81 to 86 °C
46 | N#CC1CN1C(=O)c1ccccn1 (stereo unspecified) | 124 to 127 °C
47 | COC(=O)CCC(=O)c1ccccc1NC(=O)CCl | 102 °C
48 | CN(C)c1ncnc2c1ncn2C1CC(F)C(CO)O1 (stereo unspecified) | 105 to 107 °C
49 | Cn1cnc2ncnn2c1=S | 238 to 240 °C
50 | CC(=O)C(=[N+]=[N-])C(=O)c1ccccn1 | 69 to 74 °C
51 | CCOC(=O)c1cc2c(s1)-c1c(SC)sc(C(=O)OCC)c1CC2 | 107 to 108 °C

Continued, values first:

Row | melting point | Structure (SMILES)
52 | 255 to 256 °C | Cc1ccc(-c2ccc3c(c2)C=C(C(=O)O)CCO3)cc1
53 | 183 to 184 °C | CC(O)(Cn1ccnc1)c1ccc2c(c1)Cc1ccccc1-2 (stereo unspecified)
54 | 223 to 224 °C | COc1cn(-c2ccc(O)cc2F)nc(-c2ccnn2-c2ccccc2)c1=O
55 | 205 to 208 °C | COc1ccc([C@H]2Cc3c(cccc3C(F)(F)F)NC(=O)[C@H]2O)cc1 (relative stereo)
56 | 146 to 148 °C | Cc1nc2ccccc2nc1C(=O)OCCO
57 | 249 to 252 °C | Cc1ccccc1Cc1n[nH]c2c1c(=O)n(-c1cccc(C(F)(F)F)c1)c1ncccc21
58 | 210 to 218 °C | Cc1ccc(Cn2c(=O)[nH]c3cc(Cl)cc(Cl)c3c2=O)cc1
59 | 219 to 222 °C | O=C(c1ccccn1)c1cc2ccncc2[nH]1
60 | 127 to 128 °C | N#Cc1ccc2c(c1)C(=O)c1cccn1CC2
61 | 96 to 97 °C | CCCC(O)c1cc(-c2ccc(F)cc2)oc1C (stereo unspecified)
62 | 116 to 118 °C | COc1ccc(C2CNC(=O)C2)cc1OC(C)C(O)CN1CCN(c2ccccc2)CC1 (stereo unspecified)
63 | 172 to 173 °C | COc1ccc(-c2nc3n(c2-c2ccccc2)Cc2ccccc2C3)cc1
64 | 196 to 198 °C | O=C(O)c1ccc2c(c1)Sc1ccccc1CC2
65 | 95 to 97 °C | CN(C)c1ccc([N+](=O)[O-])c(C(O)c2ccccc2)c1 (stereo unspecified)
66 | 101 to 102 °C | COc1ccc(CNC(=O)c2ccccc2)cc1OC
67 | 102 to 115 °C | OC(CNC1CCc2ccccc2C1)COc1ccc2ccccc2c1 (stereo unspecified)
68 | 126 °C | O=C(NCCc1ccccc1CCl)c1ccc([N+](=O)[O-])cc1
69 | 151 to 152 °C | CC(C)(C)OC(=O)N1CCN2C(=O)OC(c3ccccc3)(c3ccccc3)C2C1 (stereo unspecified)
70 | 103 to 105 °C | Cc1ccc(C(=O)C2Cc3ccccc3C2=O)cc1 (stereo unspecified)
71 | 288 to 290 °C | Oc1ccc2cc(-c3nc4cc(O)ccc4o3)ccc2c1
72 | 118 °C | O=c1ncc(Cl)cn1C(SCc1ccccc1)c1ccccc1 (stereo unspecified)
73 | 209 to 211 °C | CC1(C)CC(=S)Nc2ccc(-c3cccc(F)c3)cc21
74 | 145 to 146 °C | O=C(Nc1ccccc1)N1CCc2ccccc2C1
75 | 158 to 160 °C | COc1ccc(C2(O)CCN(CC3CN(c4cccc(OC)c4)C(=O)O3)CC2)cc1 (stereo unspecified)
76 | 196 to 199 °C | Cc1ccc(O)c(-c2ccc(Br)cc2)n1
